According to patent US20250115558A1, “PYRIDAZINE DERIVATIVES AND RELATED USES” (NodThera Limited, priority 2023, published 2025):
pIC50: −log10 of the molar value. Structures can show the parent of a compound that is named as a salt.

How the values were obtained:
THP-1 = THP-1 IC50 assay; format: cell-based; conditions: Homo sapiens; THP-1 cells
[1] = tested on: IL-1β release upon NLRP3 activation in peripheral blood mononuclear cells (PBMC); assay: PBMC IC50 Determination Assay; format: cell-based; conditions: Homo sapiens; inhibition of IL-1β release; LPS-primed PBMC stimulated with ATP or nigericin
Experimental: The compounds of the present disclosure were tested for their inhibitory activity against IL-1β release upon NLRP3 activation in peripheral blood mononuclear cells (PBMC).
Protocol A. PBMC were isolated from buffy coats by density gradient centrifugation on Histopaque-1077 (Sigma, cat no. 10771). Isolated cells were seeded into the wells of a 96-well plate and incubated for 3 h with lipopolysaccharide (LPS). Following medium exchange, the compounds of the present disclosure were added (a single compound per well) and the cells were incubated for 30 min. Next, the cells were stimulated either with ATP (5 mM) or nigericin (10 μM) for 1 h and the cell culture media from the wells were collected for further analysis.
The release of IL-1β into the media was determined by a quantitative detection of IL-1β in the media using an IL-1β enzyme-linked immunosorbent assay (ELISA) Ready-SET-Go!, eBioscience cat. No. 88-7261-88. Briefly, in a first step, high affinity binding plates (Corning, Costar 9018 or NUNC Maxisorp Cat No. 44-2404) were coated overnight at 4° C. with specific capture antibody included in the kit (anti-human IL-1β ref. 14-7018-68). Subsequently, plates were blocked with blocking buffer for 1 h at room temperature (rt) and after washing with a buffer (PBS with 0.05% Tween-20) incubated with protein standard and culture media. After 2 h of incubation at rt, plates were washed and incubated with biotinylated detection antibody included in the kit (anti-human IL-1β Biotin ref. 33-7110-68) for 1 h at rt. Plates were washed and incubated with HRP-streptavidin for 30 min at rt and washed again. The signal was developed after addition of 3,3′,5,5′-tetramethylbenzidine-peroxidase (TMB) until colour appeared and the reaction was stopped by 2 M H2SO4. A microplate spectrophotometer (BioTek) was used to detect signals with 450 nm. The detection range of IL-1β ELISA was […].
Protocol B. PBMC were isolated from buffy coats by density gradient centrifugation on Histopaque-1077 (Sigma, cat no. 10771). Isolated cells were seeded into the wells (280,000 cells/well) of a 96-well plate and incubated for 3 h with lipopolysaccharide (LPS, 1 μg/mL diluted 1000× from a 1 mg/mL stock solution). The compounds of the present disclosure were added (a single compound per well) and the cells were incubated for 30 min. Next, the cells were stimulated with ATP (5 mM final concentration diluted 20× from a 100 mM stock solution) for 1 h and the cell culture media from the wells were collected for further analysis.
The release of IL-1β into the media was determined by quantitative detection of IL-1β in the media using HTRF®, CisBio cat. No. 62HIL1BPEH. Briefly, cell culture supernatant were dispensed directly into the assay plate containing antibodies labelled with the HTRF® donor and acceptor. A microplate spectrophotometer (BMG) was used to detect signals at 655 nm and 620 nm. The detection range of IL-1β HTRF® was 39-6500 μg/mL.

Structure (SMILES) | pIC50 (THP-1) | pIC50 [1]
CC(=O)N1CCC(NCc2ccc(-c3c(C)cc(C(F)(F)F)cc3O)nn2)C1 (stereo not drawn) [Compound 24] | 6.00 to 6.30 | > 6.30
COCC(=O)NCc1ccc(-c2c(C)cc(C(F)(F)F)cc2O)nn1 [Compound 8, N-((6-(2-Hydroxy-6-methyl-4-(trifluoromethyl)phenyl)pyridazin-3-yl)methyl)-2-methoxyacetamide] | 5.00 to 5.52 | 5.52 to 6.00
Cc1cc(C(F)(F)F)cc(O)c1-c1ccc(Cn2ccc(=N)nc2)nn1 [Compound 120] | 5.00 to 5.52 | ≤ 5.00
Cc1cc(NCc2ccc(-c3c(C)cc(C(F)(F)F)cc3O)nn2)no1 [Compound 31, 3-Methyl-2-(6-(((5-methylisoxazol-3-yl)amino)methyl)pyridazin-3-yl)-5-(trifluoromethyl)phenol] | 5.52 to 6.00 | > 6.30
Cc1cc(C(F)(F)F)cc(O)c1-c1ccc(CNC2CCN(C)C(=O)C2)nn1 (stereo not drawn) [Compound 112] | 5.52 to 6.00 | 6.00 to 6.30
Oc1cc(C(F)(F)F)cc(C(F)(F)F)c1-c1ccc(CNC2CCOCC2)nn1 [Compound 85, 2-(6-{[(Oxan-4-yl)amino]methyl}pyridazin-3-yl)-3,5-bis(trifluoromethyl)phenol] | 5.52 to 6.00 | 5.52 to 6.00
Cc1cc(C(F)(F)F)cc(O)c1-c1ccc(CNCC2COC2)nn1 [Compound 104] | 5.52 to 6.00 | 5.52 to 6.00
Cc1cc(C(F)(F)F)cc(O)c1-c1ccc(CNC2CCOC2)nn1 (stereo not drawn) [Compound 103] | > 6.30 | > 6.30
CCNCc1ccc(-c2c(C)cc(C(F)(F)F)cc2O)nn1 [Compound 98] | 6.00 to 6.30 | > 6.30
Cc1cc(C(F)(F)F)cc(O)c1-c1ccc(COC2CCNCC2)nn1 [Compound 19, 3-Methyl-2-(6-((piperidin-4-yloxy)methyl)pyridazin-3-yl)-5-(trifluoromethyl)phenol] | 5.52 to 6.00 | 5.52 to 6.00
Cc1cc(C(F)(F)F)cc(O)c1-c1ccc(CNC2(C)CCOCC2)nn1 [Compound 5, 3-Methyl-2-(6-(((4-methyltetrahydro-2H-pyran-4-yl)amino)methyl)pyridazin-3-yl)-5-(trifluoromethyl)phenol] | 6.00 to 6.30 | 6.00 to 6.30
Cc1c(C(F)(F)F)ccc(-c2ccc(CNC3CCOCC3)nn2)c1O [Compound 9, 2-Methyl-6-(6-(((tetrahydro-2H-pyran-4-yl)amino)methyl)pyridazin-3-yl)-3-(trifluoromethyl)phenol] | ≤ 5.00 | ≤ 5.00
Cc1cc(C(F)(F)F)cc(O)c1-c1ccc(CN[C@H]2CC[C@@](C)(O)CC2)nn1 [Compound 153] | 5.52 to 6.00 | 5.52 to 6.00
Oc1cc(Cl)cc(Cl)c1-c1ccc(CNC2CCOCC2)nn1 [Compound 36, 3,5-Dichloro-2-(6-(((tetrahydro-2H-pyran-4-yl)amino)methyl)pyridazin-3-yl)phenol] | 5.52 to 6.00 | 6.00 to 6.30
Cc1cc(C(F)(F)F)cc(O)c1-c1ccc(CN(C)C2CCOCC2)nn1 [Compound 129] | 5.52 to 6.00 | 5.52 to 6.00
Cc1cc(C(F)(F)F)cc(O)c1-c1ccc(CN[C@H]2CCC(=O)N(C)C2)nn1 [Compound 88] | > 6.30 | > 6.30
Oc1cc(C(F)(F)F)cc(Cl)c1-c1ccc(CNC2CCOCC2)nn1 [Compound 14, 3-Chloro-2-(6-(((tetrahydro-2H-pyran-4-yl)amino)methyl)pyridazin-3-yl)-5-(trifluoromethyl)phenol] | 5.52 to 6.00 | 5.52 to 6.00
Cc1cc(C(F)(F)F)cc(O)c1-c1ccc(CNCC2CC2)nn1 [Compound 97] | 5.52 to 6.00 | 6.00 to 6.30
Oc1cc(C(F)(F)F)ccc1-c1ccc(CNC2CCOCC2)nn1 [Compound 13, 2-(6-(((Tetrahydro-2H-pyran-4-yl)amino)methyl)pyridazin-3-yl)-5-(trifluoromethyl)phenol] | 5.00 to 5.52 | 5.00 to 5.52
Cc1cc(C(F)(F)F)cc(O)c1-c1ccc(CNCC2CCCOC2)nn1 (stereo not drawn) [Compound 108] | 5.00 to 5.52 | 5.00 to 5.52
Cc1cc(C(F)(F)F)cc(O)c1-c1ccc(CNCc2cnn(C)c2)nn1 [Compound 128] | 5.52 to 6.00 | 5.52 to 6.00
Cc1cc(C(F)(F)F)cc(O)c1-c1ccc(Cn2ccn(C)c2=N)nn1 [Compound 123] | 6.00 to 6.30 | 5.52 to 6.00
Cc1cc(Br)cc(O)c1-c1ccc(CNC2CCOCC2)nn1 [Compound 29, 5-Bromo-3-methyl-2-(6-(((tetrahydro-2H-pyran-4-yl)amino)methyl)pyridazin-3-yl)phenol] | > 6.30 | > 6.30
Cc1cc(C(F)(F)F)cc(O)c1-c1ccc(CNC2CC(=O)N(C)C2=O)nn1 (stereo not drawn) [Compound 114] | 6.00 to 6.30 | > 6.30

The next lines start with results.

pIC50 (THP-1) | Structure (SMILES) | pIC50 [1]
5.52 to 6.00 | Cc1cc(C(F)(F)F)cc(O)c1-c1ccc(CNC2CCN(C)C2)nn1 (stereo not drawn) [Compound 71, 3-Methyl-2-(6-(((1-methylpyrrolidin-3-yl)amino)methyl)pyridazin-3-yl)-5-(trifluoromethyl)phenol dihydrochloride] | 6.00 to 6.30
> 6.30 | Cc1cc(C(F)(F)F)cc(O)c1-c1ccc(CN2CCCCC2)nn1 [Compound 135] | > 6.30
5.52 to 6.00 | Cc1cc(C(F)(F)F)cc(O)c1-c1ccc(COC2CCCNC2)nn1 (stereo not drawn) [Compound 18, 3-Methyl-2-(6-((piperidin-3-yloxy)methyl)pyridazin-3-yl)-5-(trifluoromethyl)phenol] | 6.00 to 6.30
> 6.30 | Cc1cc(Cl)cc(O)c1-c1ccc(CNC2CCOCC2)nn1 [Compound 12, 5-Chloro-3-methyl-2-(6-(((tetrahydro-2H-pyran-4-yl)amino)methyl)pyridazin-3-yl)phenol] | > 6.30
> 6.30 | Cc1cc(Cl)cc(O)c1-c1ccc(CN[C@H]2CCC(=O)N(C)C2)nn1 [Compound 87, (5S)-5-({[6-(4-Chloro-2-hydroxy-6-methylphenyl)pyridazin-3-yl]methyl}amino)-1-methylpiperidin-2-one] | > 6.30
5.52 to 6.00 | Cc1cc(C2CC2)cc(O)c1-c1ccc(CNC2CCOCC2)nn1 [Compound 48, 5-Cyclopropyl-3-methyl-2-(6-(((tetrahydro-2H-pyran-4-yl)amino)methyl)pyridazin-3-yl)phenol] | 5.52 to 6.00
> 6.30 | CC(=O)N1CC[C@H](NCc2ccc(-c3c(C)cc(Cl)cc3O)nn2)C1 [Compound 73, (S)-1-(3-(((6-(4-Chloro-2-hydroxy-6-methylphenyl)pyridazin-3-yl)methyl)amino)pyrrolidin-1-yl)ethan-1-one] | > 6.30
5.00 to 5.52 | Cc1cc(C(F)(F)F)cc(O)c1-c1ccc(CN2CCN(C)CC2)nn1 [Compound 131] | 5.52 to 6.00
5.52 to 6.00 | CO[C@@H]1CCN(Cc2ccc(-c3c(C)cc(Cl)cc3O)nn2)C1 [Compound 60, (R)-5-Chloro-2-(6-((3-methoxypyrrolidin-1-yl)methyl)pyridazin-3-yl)-3-methylphenol] | 5.52 to 6.00
5.52 to 6.00 | Cc1cc(Cl)cc(O)c1-c1ccc(CNc2c(C)noc2C)nn1 [Compound 56, 5-Chloro-2-(6-(((3,5-dimethylisoxazol-4-yl)amino)methyl)pyridazin-3-yl)-3-methylphenol] | 6.00 to 6.30
6.00 to 6.30 | Cc1cc(Cl)cc(O)c1-c1ccc(CN2CCCC2)nn1 [Compound 54, 5-Chloro-3-methyl-2-(6-(pyrrolidin-1-ylmethyl)pyridazin-3-yl)phenol] | > 6.30
5.00 to 5.52 | Cc1cc(C(F)(F)F)cc(O)c1-c1ccc(CNCC2CCCCO2)nn1 (stereo not drawn) [Compound 107] | 5.00 to 5.52
5.52 to 6.00 | Cc1cc(C(F)(F)F)cc(O)c1-c1ccc(CNC2CCCCC2)nn1 [Compound 100] | 5.52 to 6.00
6.00 to 6.30 | Cc1cc(Cl)cc(O)c1-c1ccc(COC2COC2)nn1 [Compound 65, 5-Chloro-3-methyl-2-(6-((oxetan-3-yloxy)methyl)pyridazin-3-yl)phenol] | > 6.30
6.00 to 6.30 | Cc1cc(C(F)(F)F)cc(O)c1-c1ccc(CN2CCC(F)(F)C2)nn1 [Compound 38, 2-(6-((3,3-Difluoropyrrolidin-1-yl)methyl)pyridazin-3-yl)-3-methyl-5-(trifluoromethyl)phenol] | > 6.30
